Reference: publication PMC8765781, “A platform of assays for the discovery of anti-Zika small-molecules with activity in a 3D-bioprinted outer-blood-retina model” (PLoS ONE, 2022)
Where two headings read alike, the source gives them in different places.

Experiments:
[1] = test system: caspase-3 activity induced by ZIKV in Vero cells; test: cells; type: cell-based; details: Zika virus, Vero, 48 h, read-out: Caspase 3 (ZIKV Antiviral Assays), IC50
[2] = test system: wild-type ZIKV (Ugandan MR766 strain) in Vero cells; test: ZIKV cytopathic effect (CPE) inhibition qHTS assay, CellTiter-Glo readout; type: cell-based, Zika virus; details: for IC50: 48 h, read-out: ZIKV-infection (CPE, ZIKV Antiviral Assays), IC50
[3] = test system: ZIKV-mCherry (Cambodian strain FSS13025); test: microbe, parasite or virus in culture; type: cell-based, Zika virus; details: for AC50: Zika virus, Vero
in vitro [4] = details: human
[5] = test system: mCherry-ZIKV in human neuronal progenitor cells; test: microbe, parasite or virus in culture; type: cell-based, Zika virus; details: for AC50 / IC50: Zika virus, Neuronal progenitor cell; for IC50: read-out: NPC (ZIKV Antiviral Assays), IC50
in vitro [6] = details: human; remark: listed apart in the source
in vitro [7] = details: African green monkey; for CC50 at 48 h: Vero cells
[8] = test system: ZIKV-RLuc (Cambodian strain FSS13025); test: microbe, parasite or virus in culture; type: cell-based, Zika virus; details: Zika virus, Vero, 48 h, read-out: Rluc-ZIKV (ZIKV Antiviral Assays), IC50
[9] = test system: DENV (Dengue virus type 2, strain New Guinea C)
[10] = Zika virus, Vero, read-out: Log AC50 (M) (converted)
[11] = read-out: Log AC50 (M) (converted)

| SMILES | IC50 [1] | Efficacy [2] | AC50 ([2]; Zika virus, Vero) | IC50 ([2]; Zika virus, Vero) | AC50 [2, 10] | CC-v2 (curve class of the dose response curve) [3] | Efficacy (difference between neutral response and maximum compound response) [3] | Max Resp (difference between neutral response and response at highest compound concentration) [3] | AC50 [3] | AC50 [3, 11] | CC-v2 (curve class) [5] | Efficacy [5] | Max Resp [5] | IC50 [5] | CC50 at 48 h (in vitro [7]) | IC50 [8] | WHV active Yes/No (WNV (Kern515/WN02)) | YFV active Yes/No (YFV (YFV 17D)) | ZIKV active Yes/No (ZIKV) | DENV active Yes/No [9] | also measured |
| --- | --- | --- | --- | --- | --- | --- | --- | --- | --- | --- | --- | --- | --- | --- | --- | --- | --- | --- | --- | --- | --- |
| Nc1ccn([C@@H]2O[C@H](CO)[C@@H](O)C2(F)F)c(=O)n1 [NCGC00168784-08, gemcitabine, reference compound] | > 48 µM | -24.938 | 9.2e-06 M | 9.2 µM | 9.2e-06 M | -1.2 | -61.697 | -99.896 | 2.67e-09 M | 2.67e-09 M | -1.2 | -65.573 | -52.766 | 6.31 µM | > 50 µM | 0.02 µM | – | – | – | – | CC50 (in vitro [4]): > 30 µM; Antiviral activity in human NPC [5]: moderate antiviral activity; AC50 [5]: 6.31e-06 M; AC50 [5, 11]: 6.31e-06 M; CC50 at 24 h (in vitro [6]): 16.3 µM |
| C=C1CCC2[C@](C)(CCC[C@]2(C)C(=O)O)[C@H]1CC/C(C)=C/C(=O)OC (stereo partly drawn) [NCGC00168922-02] | 7.24 µM | -63.179 | 4.04e-07 M | 0.4 µM | 4.04e-07 M | -1.4 | -50.999 | -55.843 | – | – | 4 | -21.467 | -17.835 | 11.2 µM | > 50 µM | 0.07 µM | No | No | No | No | CC50 (in vitro [4]): > 30 µM; CC50 at 24 h (in vitro [6]): 13.3 µM |
| CCC[S+](=O)([O-])Nc1ccc(F)c(C(=O)c2c[nH]c3ncc(-c4ccc(Cl)cc4)cc23)c1F [NCGC00250399-05] | 8.31 µM | -40.165 | 1.46e-06 M | 1.46 µM | 1.46e-06 M | 5 | 0 | -69.344 | – | – | 4 | -22.524 | -6.687 | 35.5 µM | – | 9.28 µM | No | No | Yes | Yes | SI value WHV (CC50/EC50) (WNV (Kern515/WN02)): 2; Selectivity Index WHV (CC50/EC50) (WNV (Kern515/WN02)): 2; CC50 (in vitro [6]): > 30 µM; SI value ZIKV (CC50/EC50) (ZIKV): 14; Selectivity Index ZIKV (CC50/EC50) (ZIKV): 14; CC50 (in vitro [7]): > 50 µM; SI value DENV (CC50/EC50) [9]: 4.3; Selectivity Index DENV (CC50/EC50) [9]: 4 |
| CC1(C)CC2C(O)C3=C(CC(C)(O)C2C1)C(=O)OC3 (stereo not drawn) [NCGC00385131-01] | 8.31 µM | -83.269 | 2.31e-05 M | 23.1 µM | – | -1.2 | -69.698 | -44.202 | 2.67e-09 M | 2.67e-09 M | – | – | – | – | > 50 µM | 0.02 µM | No | No | No | No | Curve class [2]: -3; AC50 ([2]; Zika virus, Vero, read-out: Log AC50 (converted)): 2.31e-05 M; Emax ([2]; Zika virus, Vero, read-out: Max response): 3.01%; CC50 (in vitro [4]): > 30 µM |
| OC1C=C2C3CN(Cc4cc5c(cc43)OCO5)C2CC1O (stereo not drawn) [NCGC00385948-01] | 4.17 µM | -79.681 | 2.59e-05 M | – | 2.59e-05 M | -1.2 | -44.826 | -97.729 | 2.67e-06 M | 2.67e-06 M | -1.2 | -64.358 | -62.953 | 10 µM | – | 9.28 µM | Yes | No | Yes | Yes | CC-v2 (curve class classification of the dose response curve) [2]: -2.2; Activity against WNV (WNV (Kern515/WN02)): weaker against WNV and ZIKV; SI value WHV (CC50/EC50) (WNV (Kern515/WN02)): 7.6; Selectivity Index WHV (CC50/EC50) (WNV (Kern515/WN02)): 8; Antiviral activity in human NPC [5]: effectively inhibited ZIKV in NPC cells; AC50 [5]: 1e-05 M; AC50 [5, 11]: 1e-05 M; CC50 (in vitro [6]): > 30 µM; Activity against ZIKV (ZIKV): weaker against WNV and ZIKV; SI value ZIKV (CC50/EC50) (ZIKV): 4.7; Selectivity Index ZIKV (CC50/EC50) (ZIKV): 5; CC50 (in vitro [7]): > 50 µM; Activity against DENV [9]: active against DENV; SI value DENV (CC50/EC50) [9]: 16; Selectivity Index DENV (CC50/EC50) [9]: 16 |
| CC(C)(C#N)c1ccc(N2C(=O)OCc3cnc4ccc(-c5cnc6ccccc6c5)cc4c32)cc1 [NCGC00386292-05] | 0.04 µM | -23.858 | 4.61e-06 M | 4.61 µM | 4.61e-06 M | -1.2 | -67.723 | -93.524 | 5.32e-07 M | 5.32e-07 M | – | -38.419 | 3.825 | 25.1 µM | > 50 µM | 2.93 µM | No | No | Yes | No | Antiviral activity in human NPC [5]: moderate antiviral activity; AC50 [5]: 2.51e-05 M; AC50 [5, 11]: 2.51e-05 M; CC50 at 24 h (in vitro [6]): > 30 µM; SI value ZIKV (CC50/EC50) (ZIKV): 3; Selectivity Index ZIKV (CC50/EC50) (ZIKV): 3 |
| C=C(F)c1sc(CNCCCNc2cc(=O)c3ccccc3[nH]2)c(C)c1Br [NCGC00386616-01] | 1.05 µM | -30.953 | 2.06e-05 M | 20.6 µM | 2.06e-05 M | -1.4 | -70.696 | -94.173 | – | – | -2.2 | -88.323 | -56.18 | 39.8 µM | > 50 µM | 8.27 µM | No | No | No | No | Antiviral activity in human NPC [5]: moderate antiviral activity; AC50 [5]: 3.98e-05 M; AC50 [5, 11]: 3.98e-05 M; CC50 at 24 h (in vitro [6]): > 30 µM |
